In US6660742B2, “Compositions and methods of the use thereof achiral analogues of CC-1065 and the duocarmycins” (priority 2000, dated 2003):
Values joined by “and” are separate entries in the source; they are usually repeats but may differ in a detail not shown here. Equal values may be shown once. Read-outs that look alike come from different tables or passages of the source.

Assays:
UACC-62 = experiment: NCI screen, UACC-62 (Melanoma)
Protocol: (§1) The compounds of this invention were also tested against the panel of 60 human cancer cell lines at the National Cancer Institute, Bethesda, Md. […] The cytrotoxicity studies were conducted using a 48 hour exposure, and measuring the optical density of sulforhodamide B-derived color.

HS 578T = experiment: NCI screen, HS 578T (Breast Cancer)
Protocol: (§2) The compounds of this invention were also tested against the panel of 60 human cancer cell lines at the National Cancer Institute, Bethesda, Md. (44). The cytrotoxicity studies were conducted using a 48 hour exposure, and measuring the optical density of sulforhodamide B-derived color.

EKVX = experiment: NCI screen, EKVX (Non-Small Cell Lung Cancer)
Protocol: as §1

SK-MEL-2 = experiment: NCI screen, SK-MEL-2 (Melanoma)
Protocol: as §1

MDA-MB-231/ATCC = conditions: MDA-MB-231/ATCC
HCC-2998 = experiment: NCI screen, HCC-2998 (Colon Cancer)
Protocol: as §1

SR = experiment: NCI screen, SR (Leukemia)
Protocol: as §1

U251 = experiment: NCI screen, U251 (CNS Cancer)
Protocol: as §1

HT29 = experiment: NCI screen, HT29 (Colon Cancer)
Protocol: as §1

SF-295 = experiment: NCI screen, SF-295 (CNS Cancer)
Protocol: as §1

PC-3 = experiment: NCI screen, PC-3 (Prostrate Cancer)
Protocol: as §1

SK-OV-3 = experiment: NCI screen, SK-OV-3 (Ovarian Cancer)
Protocol: as §1

CCRF-CEM = experiment: NCI screen, CCRF-CEM (Leukemia)
Protocol: as §1

[1] = system: panel of 60 human cancer cell lines; experiment: NCI in-vitro cytotoxicity screen, whole panel; assay type: cell-based
MDA-MB-435 = experiment: NCI screen, MDA-MB-435 (Breast Cancer); assay type: cell-based, human
Protocol: as §1

SW-620 = experiment: NCI screen, SW-620 (Colon Cancer); assay type: cell-based, human
Protocol: as §1

CAKI-1 = experiment: NCI screen, CAKI-1 (Renal Cancer)
Protocol: as §1

NCI-H23 = experiment: NCI screen, NCI-H23 (Non-Small Cell Lung Cancer)
Protocol: as §1

SK-MEL-5 = experiment: NCI screen, SK-MEL-5 (Melanoma)
Protocol: as §1

LOX IMVI = experiment: NCI screen, LOX IMVI (Melanoma)
Protocol: as §2

SMILES: O=C(Nc1cc(O)ccc1CCCl)c1cc2cc(NC(=O)c3cc4ccccc4o3)ccc2[nH]1 [Compound 1, 4-(2-Chloroethyl)-3-[5-(5-benzofuran-2-carboxamido)indole-2-carboxamido]phenol]
- GI50 (UACC-62): 1970 nM
- TGI (UACC-62): 3.49E−06 Molar
- Percent Growth (UACC-62; Log10 Concentration −4.0): −99%
- Percent Growth (UACC-62; Log10 Concentration −7.0): 104%
- Percent Growth (UACC-62; Log10 Concentration −8.0): 100%
- Percent Growth (HS 578T): 89% and 77%
- GI50 (HS 578T; HS 578T): 11800 nM
- TGI (HS 578T; HS 578T): 3.96E−05 Molar
- Percent Growth (HS 578T; HS 578T, Log10 Concentration −4.0): −38%
- Percent Growth (HS 578T; HS 578T, Log10 Concentration −5.0): 57%
- Percent Growth (HS 578T; HS 578T, Log10 Concentration −7.0): 92%
- GI50 (EKVX): 1780 nM
- TGI (EKVX): 4.41E−06 Molar
- Percent Growth (EKVX; Log10 Concentration −4.0): −80%
- Percent Growth (EKVX; Log10 Concentration −7.0): 96%
- GI50 (SK-MEL-2): 1320 nM
- TGI (SK-MEL-2): 2.67E−06 Molar
- Percent Growth (SK-MEL-2; Log10 Concentration −4.0): −91%
- Percent Growth (SK-MEL-2; Log10 Concentration −7.0): 101%
- GI50 (MDA-MB-231/ATCC): 2430 nM
- TGI (MDA-MB-231/ATCC): 7.10E−06 Molar
- Percent Growth (MDA-MB-231/ATCC; Log10 Concentration −4.0): −65%
- Percent Growth (MDA-MB-231/ATCC; Log10 Concentration −5.0): −16%
- Percent Growth (MDA-MB-231/ATCC; Log10 Concentration −6.0): 92%
- Percent Growth (MDA-MB-231/ATCC; Log10 Concentration −7.0): 97%
- Percent Growth (MDA-MB-231/ATCC; Log10 Concentration −8.0): 94%
- GI50 (NCI-H322M): 2830 nM
- Percent Growth (NCI-H322M): 93%
- TGI (NCI-H322M): 9.60E−06 Molar
- GI50 (HCC-2998): 1760 nM
- TGI (HCC-2998): 3.56E−06 Molar
- Percent Growth (HCC-2998; Log10 Concentration −4.0): −97%
- Percent Growth (HCC-2998; Log10 Concentration −7.0): 97%
- Percent Growth (HCC-2998; Log10 Concentration −8.0): 96%
- GI50 (SR): 852 nM
- TGI (SR): 8.12E−06 Molar
- Percent Growth (SR; Log10 Concentration −4.0): −7%
- Percent Growth (U251): 77%
- GI50 (U251; U251): 2410 nM
- TGI (U251; U251): 1.23E−05 Molar
- Percent Growth (U251; U251, Log10 Concentration −4.0): −71%
- Percent Growth (U251; U251, Log10 Concentration −5.0): 7%
- Percent Growth (U251; U251, Log10 Concentration −7.0): 101%
- GI50 (HT29): 2290 nM
- TGI (HT29): 1.15E−05 Molar
- Percent Growth (HT29; Log10 Concentration −4.0): −51%
- Percent Growth (HT29; Log10 Concentration −8.0): 96%
- Percent Growth (SF-295): 92% and 94%
- GI50 (SF-295; SF-295): 2320 nM
- TGI (SF-295; SF-295): 6.46E−06 Molar
- Percent Growth (SF-295; SF-295, Log10 Concentration −4.0): −96%
- Percent Growth (SF-295; SF-295, Log10 Concentration −5.0): −21%
- Percent Growth (SF-295; SF-295, Log10 Concentration −6.0): 91%
- GI50 (PC-3): 969 nM
- TGI (PC-3): 3.99E−06 Molar
- Percent Growth (PC-3; Log10 Concentration −4.0): −99%
- Percent Growth (PC-3; Log10 Concentration −7.0): 98%
- Percent Growth (PC-3; Log10 Concentration −8.0): 96%
- GI50 (SK-OV-3): 2930 nM
- TGI (SK-OV-3): 7.64E−06 Molar
- Percent Growth (SK-OV-3; Log10 Concentration −4.0): −99%
- Percent Growth (SK-OV-3; Log10 Concentration −7.0): 102%
- GI50 (CCRF-CEM): 1260 nM
- TGI (CCRF-CEM): 5.28E−06 Molar
- Percent Growth (CCRF-CEM; Log10 Concentration −4.0): −13%
- range of activity ([1]; 48 hour exposure): micromolar range
- activity against leukemia cells ([1]; leukemia cells): none of these compounds showed much activity
- activity against melanoma cells ([1]; melanoma cells): active
- activity against solid tumors cells ([1]; solid tumors cells): strong activity
- GI50 (MDA-MB-435): 1890 nM
- TGI (MDA-MB-435): 3.75E−06 Molar
- Percent Growth (MDA-MB-435; Log10 Concentration −4.0): −94%
- Percent Growth (MDA-MB-435; Log10 Concentration −6.0): 96%
- GI50 (SW-620): 2010 nM
- TGI (SW-620): 8.19E−06 Molar
- Percent Growth (SW-620; Log10 Concentration −4.0): −66%
- Percent Growth (SW-620; Log10 Concentration −8.0): 96%
- Percent Growth (CAKI-1): 87% and 82%
- GI50 (CAKI-1; CAKI-1): 2300 nM
- TGI (CAKI-1; CAKI-1): 7.19E−06 Molar
- Percent Growth (CAKI-1; CAKI-1, Log10 Concentration −4.0): −95%
- Percent Growth (CAKI-1; CAKI-1, Log10 Concentration −5.0): −14%
- Percent Growth (CAKI-1; CAKI-1, Log10 Concentration −8.0): 95%
- GI50 (NCI-H23): 1670 nM
- TGI (NCI-H23): 3.38E−06 Molar
- Percent Growth (NCI-H23; Log10 Concentration −4.0): −61%
- GI50 (HCT-15): 1910 nM
- Percent Growth (HCT-15): −91%
- TGI (HCT-15): 4.89E−06 Molar
- GI50 (SK-MEL-5): 1730 nM
- TGI (SK-MEL-5): 3.34E−06 Molar
- Percent Growth (SK-MEL-5; Log10 Concentration −4.0): −97%
- Percent Growth (SK-MEL-5; Log10 Concentration −6.0): 92%
- Percent Growth (SK-MEL-5; Log10 Concentration −7.0): 104%
- Percent Growth (LOX IMVI): 106%
- GI50 (LOX IMVI; LOX IMVI): 2430 nM
- TGI (LOX IMVI; LOX IMVI): 6.93E−06 Molar
- Percent Growth (LOX IMVI; LOX IMVI, Log10 Concentration −4.0): −70%
- Percent Growth (LOX IMVI; LOX IMVI, Log10 Concentration −5.0): −17%
- Percent Growth (LOX IMVI; LOX IMVI, Log10 Concentration −6.0): 92%
- Percent Growth (LOX IMVI; LOX IMVI, Log10 Concentration −7.0): 101%
- GI50 (HOP-92): 2620 nM
- TGI (HOP-92): 5.53E−06 Molar
- Percent Growth (HOP-92; Log10 Concentration −4.0): −92%
- Percent Growth (HOP-92; Log10 Concentration −8.0): 94%
